{
  "source": "patent US20050245397A1",
  "about": "“Use of nickel to correct growth disorders in plants” (priority 2004, published 2005)",
  "key": {"[1]": {"tested_on": "severely mouse-eared 'Desirable' pecan trees", "format": "in vivo", "details": "October foliar spray till run-off, NiSO4.6H2O about 3.5 g/L or CuSO4.5H2O about 4 g/L with urea and surfactant, orchard transplants, rated following May, scale 1 = no symptoms to 10 = most severe"}, "[2]": {"tested_on": "pecan trees exhibiting severe mouse-ear", "format": "in vivo", "details": "early April foliar spray at late parachute stage, treatments as in Example 8, orchard transplants, subsequent shoot growth, scale 1-10"}, "[3]": {"tested_on": "1-year-old 'Desirable' pecan seedlings potted in mouse-ear orchard soil", "experiment": "October foliar copper or nickel at 0-8X on potted greenhouse pecan seedlings, mouse-ear rated in spring", "format": "in vivo, pecan [Carya illinoinensis (Wangenh.) K. Koch]", "details": "autumn foliar copper 1X-8X, X = about 1.98 g copper sulfate per liter"}, "pecans with mouse-ear": {"tested_on": "pecans with mouse-ear", "experiment": "Inventors' orchard observations of soil or foliar copper, phosphorus, sulfur on mouse-ear", "format": "in vivo, pecan [Carya illinoinensis (Wangenh.) K. Koch]", "details": "for effect on mouse-ear, soil application of high amounts: 1st generation orchard site"}, "[4]": {"tested_on": "pecan seedlings exhibiting severe nickel deficiency, i.e., mouse-ear", "format": "in vivo, pecan [Carya illinoinensis (Wangenh.) K. Koch]", "details": "foliar spray in the spring during bud break, tested 0-1000 ppm"}},
  "note": "Like-named read-outs stand apart in the source and are kept apart here.",
  "data": [
    {"compound": "O.O.O.O.O.O=S(=O)([O-])[O-].[Cu+2]", "note": "[Copper, CuSO4.5H2O]", "values": [
      {"measurement": "Mouse-ear Severity (Class)", "setting": "[1]", "result": 7.6, "unit": "a Class"},
      {"measurement": "Mouse-ear Severity (Class)", "setting": "[1]; listed as copper", "result": 7.6, "unit": "Class"},
      {"measurement": "Mouse-ear Severity (Class)", "setting": "[2]", "result": 8.1, "unit": "a Class"},
      {"measurement": "Mouse-ear Severity (Class)", "setting": "[2]; listed as copper", "result": "about 8.1 Class"},
      {"measurement": "effect on mouse-ear severity the following spring", "setting": "[3]", "result": "failed to correct mouse-ear and actually increased severity of mouse-ear as the concentration of applied copper increased"},
      {"measurement": "effect on mouse-ear, soil applied at time of transplanting", "setting": "pecans with mouse-ear; 2nd generation site", "result": "corrects mouse-ear on one 2nd generation site"},
      {"measurement": "effect on mouse-ear, foliar applications", "setting": "pecans with mouse-ear; in vivo", "result": "little or no curative influence on mouse-ear severity"},
      {"measurement": "effect on mouse-ear, topical application to the soil", "setting": "pecans with mouse-ear; trees with mild to moderate mouse-ear on a 1st generation site", "result": "largely cured of mouse-ear by the 3rd year"}
    ]},
    {"compound": "[P]", "note": "[phosphorus]", "values": [
      {"measurement": "effect on mouse-ear, soil application of high amounts", "setting": "pecans with mouse-ear", "result": "corrected mouse-ear symptoms three years after application"}
    ]},
    {"compound": "S1SSSSSSS1", "note": "[sulfur]", "values": [
      {"measurement": "effect on mouse-ear, soil application of high amounts", "setting": "pecans with mouse-ear", "result": "corrected mouse-ear symptoms three years after application"}
    ]},
    {"compound": "nickel lignosulfonate", "values": [
      {"measurement": "nickel concentration at which foliar application corrected mouse-ear / nickel deficiency", "setting": "[4]", "result": "≥ 10", "unit": "ppm"}
    ]}
  ]
}
